compound: Nc1ncnc2c1ncn2[C@@H]1O[C@H](COP(=O)(O)OP(=O)(O)OP(=O)(O)O)[C@@H](O)[C@H]1O [adenosine triphosphate]; test: pEC50 of ATP-induced change in protein thermal stability (2D-TPP)
Procedure: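 2D thermal proteome profiling in mechanically disrupted Jurkat crude lysate. Lysate was treated 10 min at room temperature with Na-ATP (0, 0.005, 0.05, 0.5, 2 mM), heated to 12 temperatures (42-63.9 °C) for 3 min, and soluble protein was quantified by TMT10 LC-MS/MS. pEC50 is the median over replicates of dose-response fits at the lowest temperature showing a fold change of at least 1.5 (FDR-controlled hits).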

Sequence of UniProt Q99832 (Q99832 whole entry): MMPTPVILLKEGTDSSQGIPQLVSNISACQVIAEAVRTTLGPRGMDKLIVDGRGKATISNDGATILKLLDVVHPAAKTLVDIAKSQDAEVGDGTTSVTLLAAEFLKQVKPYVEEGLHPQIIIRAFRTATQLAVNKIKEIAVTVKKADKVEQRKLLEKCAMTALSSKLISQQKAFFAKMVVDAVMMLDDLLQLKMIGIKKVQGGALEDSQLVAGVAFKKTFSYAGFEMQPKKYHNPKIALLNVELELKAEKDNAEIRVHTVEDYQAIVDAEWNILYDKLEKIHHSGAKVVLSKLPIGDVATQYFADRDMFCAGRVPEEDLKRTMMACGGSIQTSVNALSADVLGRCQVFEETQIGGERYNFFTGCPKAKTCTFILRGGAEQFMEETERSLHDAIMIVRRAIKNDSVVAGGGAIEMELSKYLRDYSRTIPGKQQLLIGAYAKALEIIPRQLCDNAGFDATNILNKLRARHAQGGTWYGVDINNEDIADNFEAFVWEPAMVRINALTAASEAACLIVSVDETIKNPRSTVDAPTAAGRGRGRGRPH
Sequence of UniProt Q9UBD5 (Q9UBD5 whole entry): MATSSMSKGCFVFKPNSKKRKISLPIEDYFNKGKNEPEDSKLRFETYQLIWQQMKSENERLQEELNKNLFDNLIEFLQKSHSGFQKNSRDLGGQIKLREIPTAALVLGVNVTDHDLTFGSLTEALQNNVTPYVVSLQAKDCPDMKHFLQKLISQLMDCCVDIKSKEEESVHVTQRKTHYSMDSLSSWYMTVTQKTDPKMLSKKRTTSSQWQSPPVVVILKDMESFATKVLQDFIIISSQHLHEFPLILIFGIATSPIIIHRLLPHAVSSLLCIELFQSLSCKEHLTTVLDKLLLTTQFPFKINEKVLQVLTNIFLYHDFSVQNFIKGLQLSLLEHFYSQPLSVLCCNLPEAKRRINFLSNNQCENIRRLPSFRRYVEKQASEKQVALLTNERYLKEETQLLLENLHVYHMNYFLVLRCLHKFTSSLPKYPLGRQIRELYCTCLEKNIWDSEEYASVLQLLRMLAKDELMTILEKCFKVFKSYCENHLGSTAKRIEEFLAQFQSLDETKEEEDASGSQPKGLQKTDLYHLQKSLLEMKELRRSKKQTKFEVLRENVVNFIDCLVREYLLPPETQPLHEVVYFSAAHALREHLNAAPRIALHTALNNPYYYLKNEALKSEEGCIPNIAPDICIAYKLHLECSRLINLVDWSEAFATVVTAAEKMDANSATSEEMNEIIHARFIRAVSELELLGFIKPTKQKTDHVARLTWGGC
Sequence of UniProt O75191 (O75191 whole entry): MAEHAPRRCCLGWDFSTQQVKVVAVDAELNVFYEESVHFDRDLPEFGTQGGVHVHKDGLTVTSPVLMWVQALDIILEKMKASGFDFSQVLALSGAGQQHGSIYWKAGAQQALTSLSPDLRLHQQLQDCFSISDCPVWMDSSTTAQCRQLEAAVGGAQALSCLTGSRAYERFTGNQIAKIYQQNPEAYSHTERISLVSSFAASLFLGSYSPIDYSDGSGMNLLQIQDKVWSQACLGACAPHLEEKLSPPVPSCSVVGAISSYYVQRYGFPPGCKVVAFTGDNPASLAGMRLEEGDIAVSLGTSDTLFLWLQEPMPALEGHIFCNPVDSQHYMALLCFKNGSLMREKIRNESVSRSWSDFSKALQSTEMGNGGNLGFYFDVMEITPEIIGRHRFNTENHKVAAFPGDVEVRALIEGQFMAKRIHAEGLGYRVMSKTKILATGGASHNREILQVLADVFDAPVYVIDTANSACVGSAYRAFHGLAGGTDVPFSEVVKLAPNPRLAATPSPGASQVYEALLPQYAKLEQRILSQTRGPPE
Sequence of UniProt P18669 (P18669 whole entry, looked up): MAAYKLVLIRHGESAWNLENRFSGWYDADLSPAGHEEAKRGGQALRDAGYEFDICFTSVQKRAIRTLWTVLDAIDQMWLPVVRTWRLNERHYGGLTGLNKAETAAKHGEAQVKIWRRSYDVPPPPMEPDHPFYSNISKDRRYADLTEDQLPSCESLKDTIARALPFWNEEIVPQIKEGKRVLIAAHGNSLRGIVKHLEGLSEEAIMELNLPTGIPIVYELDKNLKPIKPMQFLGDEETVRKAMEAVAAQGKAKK
Sequence of UniProt O94826 (O94826 whole entry): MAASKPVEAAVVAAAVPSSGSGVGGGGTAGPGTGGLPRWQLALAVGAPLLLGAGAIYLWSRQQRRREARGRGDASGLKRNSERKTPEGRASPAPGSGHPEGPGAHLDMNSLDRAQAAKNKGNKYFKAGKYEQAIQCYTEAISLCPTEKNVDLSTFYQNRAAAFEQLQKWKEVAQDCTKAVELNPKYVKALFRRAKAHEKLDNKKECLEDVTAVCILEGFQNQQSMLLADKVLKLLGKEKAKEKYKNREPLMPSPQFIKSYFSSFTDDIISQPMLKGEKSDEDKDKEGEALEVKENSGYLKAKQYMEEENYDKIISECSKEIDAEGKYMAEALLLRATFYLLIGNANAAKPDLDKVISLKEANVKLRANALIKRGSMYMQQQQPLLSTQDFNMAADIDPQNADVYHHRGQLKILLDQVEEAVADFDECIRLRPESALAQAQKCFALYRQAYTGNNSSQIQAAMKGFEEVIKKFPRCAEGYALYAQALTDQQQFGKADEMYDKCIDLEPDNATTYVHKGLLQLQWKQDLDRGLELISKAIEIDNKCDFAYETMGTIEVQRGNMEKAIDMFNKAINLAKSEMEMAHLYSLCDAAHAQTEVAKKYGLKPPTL
Sequence of UniProt O75083 (O75083 whole entry): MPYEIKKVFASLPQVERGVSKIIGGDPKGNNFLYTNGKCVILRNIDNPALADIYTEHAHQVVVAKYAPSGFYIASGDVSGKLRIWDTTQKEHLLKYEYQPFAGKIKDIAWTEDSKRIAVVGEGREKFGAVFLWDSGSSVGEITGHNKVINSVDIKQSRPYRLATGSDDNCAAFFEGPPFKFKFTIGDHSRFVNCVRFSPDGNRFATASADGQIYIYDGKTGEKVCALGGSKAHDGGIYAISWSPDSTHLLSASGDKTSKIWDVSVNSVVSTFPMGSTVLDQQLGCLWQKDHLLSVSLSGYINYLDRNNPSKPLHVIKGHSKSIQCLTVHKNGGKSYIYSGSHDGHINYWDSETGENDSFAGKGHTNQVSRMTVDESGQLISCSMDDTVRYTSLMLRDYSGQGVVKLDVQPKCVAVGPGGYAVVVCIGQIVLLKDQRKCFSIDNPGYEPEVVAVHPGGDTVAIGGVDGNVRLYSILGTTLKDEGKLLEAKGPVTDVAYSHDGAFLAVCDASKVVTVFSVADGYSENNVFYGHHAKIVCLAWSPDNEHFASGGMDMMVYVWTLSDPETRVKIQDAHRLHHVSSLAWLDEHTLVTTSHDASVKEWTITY
Sequence of UniProt Q9BQG0 (Q9BQG0 whole entry): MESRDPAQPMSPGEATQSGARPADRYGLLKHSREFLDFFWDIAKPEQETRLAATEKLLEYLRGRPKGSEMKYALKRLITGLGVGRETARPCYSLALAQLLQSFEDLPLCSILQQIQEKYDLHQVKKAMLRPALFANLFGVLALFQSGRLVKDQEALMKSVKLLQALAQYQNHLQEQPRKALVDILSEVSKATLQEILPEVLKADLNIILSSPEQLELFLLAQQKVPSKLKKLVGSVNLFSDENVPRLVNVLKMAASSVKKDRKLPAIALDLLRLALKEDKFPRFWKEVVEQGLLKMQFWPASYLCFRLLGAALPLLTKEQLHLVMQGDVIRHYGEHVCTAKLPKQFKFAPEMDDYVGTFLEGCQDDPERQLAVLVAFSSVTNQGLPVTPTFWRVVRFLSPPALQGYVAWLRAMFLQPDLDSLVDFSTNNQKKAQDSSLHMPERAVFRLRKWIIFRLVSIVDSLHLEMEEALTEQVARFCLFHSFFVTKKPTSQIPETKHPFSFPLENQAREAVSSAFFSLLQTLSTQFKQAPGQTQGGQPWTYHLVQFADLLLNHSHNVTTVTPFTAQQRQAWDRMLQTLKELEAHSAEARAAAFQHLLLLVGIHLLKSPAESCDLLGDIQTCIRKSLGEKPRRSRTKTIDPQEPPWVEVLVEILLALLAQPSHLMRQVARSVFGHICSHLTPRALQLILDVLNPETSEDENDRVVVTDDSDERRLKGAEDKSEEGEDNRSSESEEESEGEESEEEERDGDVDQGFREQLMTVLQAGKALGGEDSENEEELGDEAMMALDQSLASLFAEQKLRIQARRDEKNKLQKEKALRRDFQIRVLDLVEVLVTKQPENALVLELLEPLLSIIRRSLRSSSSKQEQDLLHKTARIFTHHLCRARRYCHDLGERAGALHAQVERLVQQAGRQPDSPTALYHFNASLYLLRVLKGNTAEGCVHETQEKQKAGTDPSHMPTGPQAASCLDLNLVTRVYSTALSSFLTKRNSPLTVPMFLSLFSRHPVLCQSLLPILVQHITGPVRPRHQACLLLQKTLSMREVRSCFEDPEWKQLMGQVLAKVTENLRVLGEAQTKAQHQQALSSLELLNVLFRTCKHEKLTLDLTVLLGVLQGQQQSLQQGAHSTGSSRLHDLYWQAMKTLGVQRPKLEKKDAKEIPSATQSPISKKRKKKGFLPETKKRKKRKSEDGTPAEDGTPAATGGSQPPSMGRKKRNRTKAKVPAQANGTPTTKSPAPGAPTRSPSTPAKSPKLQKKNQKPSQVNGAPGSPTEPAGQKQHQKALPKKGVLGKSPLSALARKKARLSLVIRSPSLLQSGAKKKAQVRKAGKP
Sequence of UniProt Q99426 (Q99426 whole entry): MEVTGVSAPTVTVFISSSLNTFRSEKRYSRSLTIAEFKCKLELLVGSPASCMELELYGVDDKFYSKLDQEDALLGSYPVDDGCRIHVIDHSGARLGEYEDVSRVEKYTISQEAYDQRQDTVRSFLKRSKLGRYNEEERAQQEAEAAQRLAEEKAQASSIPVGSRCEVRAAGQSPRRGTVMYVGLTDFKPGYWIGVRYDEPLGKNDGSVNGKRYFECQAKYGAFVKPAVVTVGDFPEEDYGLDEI
Sequence of UniProt P62318 (P62318 whole entry): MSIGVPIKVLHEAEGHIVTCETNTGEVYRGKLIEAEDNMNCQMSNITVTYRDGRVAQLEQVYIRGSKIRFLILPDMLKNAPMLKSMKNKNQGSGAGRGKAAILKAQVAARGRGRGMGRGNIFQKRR

Row | Target | pEC50
1 | XYLB (effect direction: stabilized) (UniProt O75191) | 3.04
2 | UniProt P62241 (effect direction: destabilized) | 3.14
3 | WDR1 (effect direction: stabilized) (UniProt O75083) | < 2.7
4 | SMARCAD1 (effect direction: stabilized) (UniProt Q9H4L7) | 3.94
5 | TSEN2 (effect direction: stabilized) (UniProt Q8NCE0) | 3.12
6 | RPSA (effect direction: stabilized) (UniProt P08865) | < 2.7
7 | PSMD11 (effect direction: stabilized) (UniProt O00231) | 4.08
8 | UniProt Q9Y530 (effect direction: stabilized) | 2.97
9 | PUS7 (effect direction: stabilized) (UniProt Q96PZ0) | < 2.7
10 | MRTO4 (effect direction: destabilized) (UniProt Q9UKD2) | < 2.7
11 | EIF3L (effect direction: stabilized) (UniProt Q9Y262) | < 2.7
12 | CYB5R3 (effect direction: stabilized) (UniProt P00387) | 4.02
13 | MTHFD1L (effect direction: stabilized) (UniProt Q6UB35) | 3.33
14 | PSMD13 (effect direction: stabilized) (UniProt Q9UNM6) | 4.14
15 | RPL17 (effect direction: destabilized) (UniProt P18621) | 3.27
16 | HIST1H1B (effect direction: destabilized) (UniProt P16401) | < 2.7
17 | GPN3 (effect direction: destabilized) (UniProt Q9UHW5) | 2.74
18 | RPS2 (effect direction: destabilized) (UniProt P15880) | 3.82
19 | FDXR (effect direction: stabilized) (UniProt P22570) | 3.26
20 | PHKA1 (effect direction: stabilized) (UniProt P46020) | 2.87
21 | UniProt O94826 (effect direction: stabilized) | 3.14
22 | COPS6 (effect direction: stabilized) (UniProt Q7L5N1) | < 2.7

Row | Target | pEC50
23 | SRPRB (effect direction: stabilized) (UniProt Q9Y5M8) | 3.22
24 | FAM20B (effect direction: stabilized) (UniProt O75063) | 3.12
25 | PELO (effect direction: stabilized) (UniProt Q9BRX2) | 3.17
26 | SARNP (effect direction: destabilized) (UniProt P82979) | 3.18
27 | DIS3L2 (effect direction: stabilized) (UniProt Q8IYB7) | 3.42
28 | IPO5 (effect direction: stabilized) (UniProt O00410) | < 2.7
29 | PSMC2 (effect direction: stabilized) (UniProt P35998) | 4.28
30 | MED20 (effect direction: stabilized) (UniProt Q9H944) | < 2.7
31 | MIER1 (effect direction: stabilized) (UniProt Q8N108) | < 2.7
32 | HSP90AA1 (effect direction: stabilized) (UniProt P07900) | > 5.3
33 | SWAP70 (effect direction: stabilized) (UniProt Q9UH65) | < 2.7
34 | PGAM1 (effect direction: destabilized) (UniProt P18669) | < 2.7
35 | SARS2 (effect direction: stabilized) (UniProt Q9NP81) | 3.43
36 | DCTN1 (effect direction: stabilized) (UniProt Q14203) | < 2.7
37 | UniProt P62263 (effect direction: destabilized) | 2.97
38 | UniProt Q13131 (effect direction: stabilized) | 3.29
39 | OSBPL8 (effect direction: stabilized) (UniProt Q9BZF1) | 3.4
40 | UniProt Q6ZUM4 (effect direction: stabilized) | 3.74
41 | UniProt Q92841 (effect direction: stabilized) | 3.79
42 | TBCB (effect direction: stabilized) (UniProt Q99426) | < 2.7
43 | SMC4 (effect direction: stabilized) (UniProt Q9NTJ3) | 3.54
44 | HLTF (effect direction: stabilized) (UniProt Q14527) | 4.11

Row | Target | pEC50
45 | UBA5 (effect direction: stabilized) (UniProt Q9GZZ9) | 3.81
46 | UniProt Q9P289 (effect direction: stabilized) | 3.21
47 | USO1 (effect direction: stabilized) (UniProt O60763) | < 2.7
48 | PLEKHA1 (effect direction: stabilized) (UniProt Q9HB21) | 3.32
49 | TRIM28 (effect direction: stabilized) (UniProt Q13263) | < 2.7
50 | LARP1 (effect direction: stabilized) (UniProt Q6PKG0) | < 2.7
51 | RPL27A (effect direction: destabilized) (UniProt P46776) | 3.2
52 | KLC2 (effect direction: stabilized) (UniProt Q9H0B6) | 4.06
53 | SNRPA1 (effect direction: stabilized) (UniProt P09661) | < 2.7
54 | UniProt O00487 (effect direction: stabilized) | 4.28
55 | FH (effect direction: stabilized) (UniProt P07954) | 3.08
56 | PITRM1 (effect direction: stabilized) (UniProt Q5JRX3) | 3.09
57 | PHACTR4 (effect direction: stabilized) (UniProt Q8IZ21) | 4.03
58 | CDK9 (effect direction: stabilized) (UniProt P50750) | > 5.3
59 | IMPDH1 (effect direction: stabilized) (UniProt P20839) | 3.32
60 | ALDH5A1 (effect direction: stabilized) (UniProt P51649) | 3.06
61 | GLOD4 (effect direction: stabilized) (UniProt Q9HC38) | < 2.7
62 | YME1L1 (effect direction: stabilized) (UniProt Q96TA2) | 3.54
63 | PHGDH (effect direction: stabilized) (UniProt O43175) | < 2.7
64 | THUMPD3 (effect direction: stabilized) (UniProt Q9BV44) | 3.1

More lines, now with the values ahead:

Row | pEC50 | Target
65 | 2.94 | NOP2 (effect direction: destabilized) (UniProt P46087)
66 | 3.68 | DDX56 (effect direction: stabilized) (UniProt Q9NY93)
67 | 4.39 | CCT7 (effect direction: stabilized) (UniProt Q99832)
68 | < 2.7 | DUSP12 (effect direction: stabilized) (UniProt Q9UNI6)
69 | 2.77 | MYBBP1A (effect direction: destabilized) (UniProt Q9BQG0)
70 | < 2.7 | UniProt P62318 (effect direction: destabilized)
71 | 2.95 | CAND1 (effect direction: stabilized) (UniProt Q86VP6)
72 | < 2.7 | RNF20 (effect direction: stabilized) (UniProt Q5VTR2)
73 | 3.41 | SMC1A (effect direction: stabilized) (UniProt Q14683)
74 | < 2.7 | THOC1 (effect direction: stabilized) (UniProt Q96FV9)
75 | 4.07 | KIF3B (effect direction: stabilized) (UniProt O15066)
76 | 3.63 | ACSL1 (effect direction: stabilized) (UniProt P33121)
77 | 3.47 | UniProt Q9UBD5 (effect direction: stabilized)
78 | 2.72 | UniProt Q15149 (effect direction: stabilized)
79 | 3.12 | CTSA (effect direction: stabilized) (UniProt P10619)
80 | 3.15 | PTBP1 (effect direction: stabilized) (UniProt P26599)
81 | 3.44 | DHX40 (effect direction: stabilized) (UniProt Q8IX18)
82 | 3.15 | CAB39 (effect direction: stabilized) (UniProt Q9Y376)
83 | 2.88 | ARPC3 (effect direction: stabilized) (UniProt O15145)
84 | 4.05 | HIST1H1C (effect direction: destabilized) (UniProt P16403)
85 | 3.22 | VARS2 (effect direction: stabilized) (UniProt Q5ST30)
86 | 3.08 | UniProt Q9BSJ8 (effect direction: stabilized)
87 | < 2.7 | TLN1 (effect direction: stabilized) (UniProt Q9Y490)
88 | 2.94 | PRCP (effect direction: stabilized) (UniProt P42785)
89 | 3.49 | SMG6 (effect direction: stabilized) (UniProt Q86US8)
90 | 3.66 | ASS1 (effect direction: stabilized) (UniProt P00966)
91 | 3.02 | PANK2 (effect direction: stabilized) (UniProt Q9BZ23)
92 | 3.28 | ITPR2 (effect direction: stabilized) (UniProt Q14571)

— the supplement of paper PMC6411743
